Source: the supplement of paper PMC10627819

Experiments:
B. subtilis 168 [1] = experiment: fitness (endpoint OD595 vs no drug) (fraction); higher = more growth
In short: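 At 37 °C, bacteria in TSB, LB Lennox or CY were grown in 384-well plates from a starting OD595 of 0.01. OD595 was measured every 30 min for 14 h, with the first reading used as background. Fitness is the optical density at the switch to stationary phase as a fraction of the robust mean of no-drug control wells, capped at 1.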

S. aureus Newman = experiment: Bliss interaction score (quartile over a dose matrix) (fitness difference); higher = more antagonism (negative = synergy)
In short: (§1)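 Fitness was defined as normalised growth: OD595 at the start of stationary phase divided by the plate's robust no-drug mean and capped at 1. Single-drug fitness was inferred from combination measurements. The Bliss score is observed fitness minus the product of the single-drug values, summarised by quartiles across technical, biological and donor/recipient replicates.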

S. pneumoniae D39V = experiment: as above
In short: as §1

B. subtilis 168 [2] = experiment: as above
In short: as §1

S. aureus DSM 20231 = experiment: as above
In short: as §1
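For Bliss interaction score (quartile over a dose matrix) in this document: first quartile when negative (synergy) and third quartile when positive (antagonism).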
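For fitness (endpoint OD595 vs no drug) in this document: OD595 on entry to stationary phase over no-drug wells; at most 1.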

C[C@H]1c2cccc(O)c2C(=O)C2=C(O)[C@]3(O)C(=O)C(C(N)=O)=C(O)[C@@H](N(C)C)[C@@H]3[C@@H](O)[C@@H]21 [Doxycycline] + CO[C@@H]1[C@@H](OC(N)=O)[C@@H](O)[C@H](Oc2ccc3c(O)c(NC(=O)c4ccc(O)c(CC=C(C)C)c4)c(=O)oc3c2C)OC1(C)C [Novobiocin]
fitness, B. subtilis 168 [1]
Details	first compound 0.02 µg/mL	first compound 0.04 µg/mL	first compound 0.08 µg/mL
partner 0.0125 µg/mL	0.885	0.808	0.466
partner 0.025 µg/mL	0.875	0.775	0.405
partner 0.05 µg/mL	0.978	0.775	–

fitness, B. subtilis 168 [1], one replicate
Details	partner 0.1 µg/mL	partner 0.125 µg/mL	partner 0.2 µg/mL	partner 0.25 µg/mL	partner 0.5 µg/mL
first compound 0.02 µg/mL	≥ 1	0.861	0.979	0.963	0.623
first compound 0.04 µg/mL	0.874	0.787	0.895	0.712	0.547
first compound 0.08 µg/mL	0.675	0.341	0.71	0.103	0.0433

Details	Bliss interaction score
B. subtilis 168 [2]	0.0575
S. aureus DSM 20231	0.0829
S. aureus Newman	0.0369
S. pneumoniae D39V	0.0928

CO/N=C(\C(=O)N[C@@H]1C(=O)N2C(C(=O)O)=C(COC(N)=O)CS[C@H]12)c1ccco1 [Cefuroxime] + C[C@H]1c2cccc(O)c2C(=O)C2=C(O)[C@]3(O)C(=O)C(C(N)=O)=C(O)[C@@H](N(C)C)[C@@H]3[C@@H](O)[C@@H]21 [Doxycycline]
fitness, B. subtilis 168 [1]
Details	first compound 0.04875 µg/mL	first compound 0.0975 µg/mL	first compound 0.195 µg/mL
partner 0.02 µg/mL	0.663	0.603	0.514
partner 0.04 µg/mL	0.6	0.525	0.358
partner 0.08 µg/mL	0.174	0.14	0.12

fitness, B. subtilis 168 [1], one replicate
Details	first compound 0.39 µg/mL	first compound 0.78 µg/mL	first compound 1.562 µg/mL	first compound 3.125 µg/mL	first compound 6.25 µg/mL
partner 0.02 µg/mL	0.488	0.451	0.441	0.424	0.393
partner 0.04 µg/mL	0.313	0.298	0.239	0.148	0.0995
partner 0.08 µg/mL	0.236	0.225	0.0559	0.0405	0.0345

Details	Bliss interaction score
B. subtilis 168 [2]	0.105
S. aureus DSM 20231	-0.257
S. aureus Newman	-0.0377
S. pneumoniae D39V	0.0445

Cc1ncc([N+](=O)[O-])n1CCO [Metronidazole] + CO[C@@H]1[C@@H](OC(N)=O)[C@@H](O)[C@H](Oc2ccc3c(O)c(NC(=O)c4ccc(O)c(CC=C(C)C)c4)c(=O)oc3c2C)OC1(C)C [Novobiocin]
fitness, B. subtilis 168 [1]
Details	first compound 0.625 µg/mL	first compound 1.25 µg/mL	first compound 2.5 µg/mL
partner 0.0125 µg/mL	0.969	0.954	0.968
partner 0.025 µg/mL	0.998	0.977	0.986
partner 0.05 µg/mL	0.969	0.977	0.98

fitness, B. subtilis 168 [1], one replicate
Details	first compound 0.625 µg/mL	first compound 1.25 µg/mL	first compound 2.5 µg/mL
partner 0.125 µg/mL	≥ 1	0.958	0.915
partner 0.25 µg/mL	0.923	0.916	0.908
partner 0.5 µg/mL	0.584	0.633	0.552

Details	Bliss interaction score
B. subtilis 168 [2]	0.072
S. aureus DSM 20231	0.0355
S. aureus Newman	0.05
S. pneumoniae D39V	0.126

CO/N=C(\C(=O)N[C@@H]1C(=O)N2C(C(=O)O)=C(COC(N)=O)CS[C@H]12)c1ccco1 [Cefuroxime] + COc1cc(Cc2cnc(N)nc2N)cc(OC)c1OC [Trimethoprim]
fitness, B. subtilis 168 [1], one replicate
Details	partner 0.1 µg/mL	partner 0.125 µg/mL	partner 0.2 µg/mL	partner 0.25 µg/mL	partner 0.4 µg/mL	partner 1 µg/mL	partner 2 µg/mL
first compound 0.04875 µg/mL	–	0.392	–	0.382	–	0.37	0.375
first compound 0.0975 µg/mL	–	0.443	–	0.46	–	0.315	0.247
first compound 0.195 µg/mL	0.325	–	0.259	–	0.115	0.279	0.147
first compound 0.39 µg/mL	0.162	0.227	0.262	–	0.207	–	–
first compound 0.78 µg/mL	0.237	0.155	0.221	–	0.17	–	–

fitness, B. subtilis 168 [1]
Details	first compound 0.04875 µg/mL	first compound 0.0975 µg/mL	first compound 0.195 µg/mL	first compound 0.39 µg/mL	first compound 0.78 µg/mL	first compound 1.562 µg/mL	first compound 3.125 µg/mL	first compound 6.25 µg/mL
partner 0.125 µg/mL	–	–	0.289	–	–	–	–	–
partner 0.25 µg/mL	–	–	0.315	0.187	0.178	–	–	–
partner 0.5 µg/mL	0.397	0.407	0.29	0.19	0.168	0.286	0.26	0.255

Details	Bliss interaction score
B. subtilis 168 [2]	0.098
S. aureus DSM 20231	-0.188
S. aureus Newman	-0.438
S. pneumoniae D39V	-0.0241
